Assay results: patent publication US20260083761A1, “PHARMACEUTICAL COMPOSITION FOR TREATING BRAIN DISEASE, NEURONAL MIGRATION PROMOTER, AND USE THEREOF” (PUBLIC UNIVERSITY CORPORATION NAGOYA CITY UNIVERSITY, priority 2022, published 2026)

Tests used:
[1] = tested on: V-SVZ-derived new neurons co-cultured with BV2 cells; assay: Experiment 10: co-culture of V-SVZ-derived new neurons with LPS-stimulated BV2 cells; PSA signal and time-lapse imaging; format: cell-based, mouse; conditions: inhibitor final concentration 1 mM, vs PBS (LPS+) and control (LPS−)
Neu4 = biological target: T1, Neu4 (Homo sapiens, UniProt Q8WWR8); conditions: human neuraminidases; reported; cited from earlier work
T1 sequence (Q8WWR8 1-496 isoform Q8WWR8-2): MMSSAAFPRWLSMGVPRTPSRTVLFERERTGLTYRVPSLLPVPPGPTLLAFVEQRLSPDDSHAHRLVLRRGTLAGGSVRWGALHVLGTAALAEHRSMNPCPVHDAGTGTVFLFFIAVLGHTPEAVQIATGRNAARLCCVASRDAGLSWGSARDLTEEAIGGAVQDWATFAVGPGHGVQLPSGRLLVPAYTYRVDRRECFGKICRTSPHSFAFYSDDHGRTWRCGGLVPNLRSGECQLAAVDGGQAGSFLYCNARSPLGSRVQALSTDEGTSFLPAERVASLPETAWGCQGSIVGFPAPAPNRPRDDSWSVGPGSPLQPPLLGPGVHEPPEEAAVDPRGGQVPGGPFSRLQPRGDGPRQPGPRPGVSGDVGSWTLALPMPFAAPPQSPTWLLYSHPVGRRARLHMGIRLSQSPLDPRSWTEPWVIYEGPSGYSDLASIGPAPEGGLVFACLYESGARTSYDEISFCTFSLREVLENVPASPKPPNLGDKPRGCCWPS

V-SVZ-derived neurons = assay: Experiment 12: Zanamivir in Nestin-CreERT2;NSE-DTA mice with new neurons removed; FFT and double-positive cells; format: in vivo, mouse; conditions: Nestin-CreERT2;NSE-DTA group, unlike NSE-DTA group; Zanamivir 50 mg/kg i.p. for 14 days from day 7 after injury; FFT 14 days after end of administration
Neu3 = biological target: T2, Neu3 (Homo sapiens, UniProt Q9UQ49); conditions: human neuraminidases; reported; cited from earlier work
T2 sequence (Q9UQ49 1-461 isoform Q9UQ49-2): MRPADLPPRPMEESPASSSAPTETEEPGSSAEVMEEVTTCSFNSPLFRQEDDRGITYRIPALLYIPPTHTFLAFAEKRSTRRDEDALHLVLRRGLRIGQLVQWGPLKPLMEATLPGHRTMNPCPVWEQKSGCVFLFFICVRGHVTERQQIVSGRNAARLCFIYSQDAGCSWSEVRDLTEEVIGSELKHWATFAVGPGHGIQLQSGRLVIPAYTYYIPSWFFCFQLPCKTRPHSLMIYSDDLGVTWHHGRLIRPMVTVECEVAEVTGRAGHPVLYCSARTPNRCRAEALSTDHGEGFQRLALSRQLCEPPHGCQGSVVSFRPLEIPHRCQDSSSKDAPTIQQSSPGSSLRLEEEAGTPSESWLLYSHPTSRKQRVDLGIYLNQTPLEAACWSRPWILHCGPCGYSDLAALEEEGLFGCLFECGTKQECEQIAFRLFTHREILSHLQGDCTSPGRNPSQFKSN

[2] = tested on: new neurons migrating to the brain injury site; assay: Experiment 13: Zanamivir in common marmosets with brain injury; PSA-NCAM and Dcx immunostaining; format: in vivo, common marmoset (Callithrix jacchus); conditions: common marmoset, 50 mg/kg i.p. for 21 days from day 7 after injury, fixed 28 days after injury

| Structure (SMILES) | PSA signal intensity [1] | inhibitory effect on human Neu4 (Neu4) | left-side slipping-off rate in the FFT (V-SVZ-derived neurons) | inhibitory effect on human Neu3 (Neu3) | localization of new neurons (distance of Dcx-positive cells from the injury site) ([2]; vs control) | PSA signal intensity of new neurons localized in the striatum on the injury side ([2]; vs non-administration control) |
| --- | --- | --- | --- | --- | --- | --- |
| CC(=O)N[C@H]1[C@H]([C@H](O)[C@H](O)CO)OC(C(=O)O)=C[C@@H]1O [DANA, 2,3-dehydro-2-deoxy-N-acetylneuraminic acid] | maintained | – | – | – | – | – |
| CC(=O)N[C@H]1[C@H]([C@H](O)[C@H](O)CO)OC(C(=O)O)=C[C@@H]1N=C(N)N [Zanamivir] | maintained | inhibitory effect has been reported | no improvement | inhibitory effect has been reported | localized closer to the injury site | maintain |
